Experimental data: publication PMC10518717, “High-Throughput Screening and Proteomic Characterization of Compounds Targeting Myeloid-Derived Suppressor Cells” (Molecular & Cellular Proteomics : MCP, 2023)

Biological target: T1, NUP-MDSC cell lysate (Mus musculus, UniProt P59644)
T1 construct: endogenous in cells; host or cells: mouse NUP-MDSC (lysate)
T1 sequence (P59644 1-1003): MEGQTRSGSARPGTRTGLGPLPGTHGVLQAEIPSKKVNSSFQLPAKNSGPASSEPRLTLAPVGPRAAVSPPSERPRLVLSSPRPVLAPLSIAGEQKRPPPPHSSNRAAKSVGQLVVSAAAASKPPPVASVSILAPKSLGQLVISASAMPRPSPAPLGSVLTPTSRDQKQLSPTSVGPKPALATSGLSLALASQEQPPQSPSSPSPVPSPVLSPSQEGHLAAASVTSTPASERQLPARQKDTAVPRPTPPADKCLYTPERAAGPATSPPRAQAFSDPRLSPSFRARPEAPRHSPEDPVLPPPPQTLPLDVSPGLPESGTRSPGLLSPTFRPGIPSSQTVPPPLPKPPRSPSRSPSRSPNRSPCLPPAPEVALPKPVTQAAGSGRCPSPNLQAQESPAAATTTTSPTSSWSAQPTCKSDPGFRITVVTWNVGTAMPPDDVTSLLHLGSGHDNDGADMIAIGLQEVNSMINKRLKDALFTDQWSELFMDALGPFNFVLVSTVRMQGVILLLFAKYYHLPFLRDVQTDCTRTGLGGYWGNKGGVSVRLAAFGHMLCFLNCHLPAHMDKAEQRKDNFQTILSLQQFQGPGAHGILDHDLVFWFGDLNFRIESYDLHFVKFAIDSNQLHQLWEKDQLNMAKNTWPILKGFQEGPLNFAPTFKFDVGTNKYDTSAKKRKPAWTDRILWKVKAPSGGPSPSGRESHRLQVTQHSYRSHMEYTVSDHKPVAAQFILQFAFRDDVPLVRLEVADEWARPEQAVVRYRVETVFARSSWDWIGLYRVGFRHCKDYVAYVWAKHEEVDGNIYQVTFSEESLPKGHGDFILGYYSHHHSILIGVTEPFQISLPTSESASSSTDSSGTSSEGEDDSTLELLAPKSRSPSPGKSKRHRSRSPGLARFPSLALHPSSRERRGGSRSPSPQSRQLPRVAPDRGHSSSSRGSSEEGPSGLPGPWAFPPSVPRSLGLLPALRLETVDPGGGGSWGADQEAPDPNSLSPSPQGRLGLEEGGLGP
Experiment: Solvent-induced protein precipitation profiling, proteome-wide
Assay type: binding
Details: protein Inpp5j; soluble fraction; 26 uM
Protocol: NUP-MDSCs were differentiated as described above, washed twice with PBS, resuspended in lysis buffer (PBS, 0.4% IGEPAL CA-630, 1× Halt Protease-Inhibitor Cocktail (Thermo Fisher Scientific)), and subjected to three freeze-thaw cycles. The lysate was cleared by centrifugation for 30 min at 18,000g and 4 °C. The soluble fraction was diluted to 4 mg/ml and allowed to warm up to room temperature. Equal volumes of lysate were treated in triplicates with 100 x compound stock solutions (in DMSO) or DMSO for 15 min at room temperature (final concentrations: cmpd 2: 7.8 μM (3xEC50) and 26 μM (10xEC50), cmpd 3: 10 μM and 26 μM). Similar to a previous study ([46]), each sample was divided into eight aliquots to be denatured using different concentrations (8%, 10%, 12%, 14%, 16%, 18%, 20%, 22%) of acetone:ethanol:acetic acid (50:50:0.1) in water for 20 min at 37 °C with vigorous shaking. Aggregated proteins were separated by centrifugation for 45 min at 4 °C and 3900g. Next, equal amounts of the soluble fraction were pooled for subsequent proteomic analysis.
Methanol was added to 100 μg of the pooled supernatants to a final concentration of 70% and further processed according to the R2P1 protocol ([47]), with tryptic digestion performed in 50 mM Hepes (pH 8.5). Elution fractions were combined and dried by vacuum centrifugation. Dried samples were resuspended in deionized water, and TMT labeling was performed according to Zecha et al. ([35]). All 15 samples (5 treatment conditions in triplicates) were labeled with one TMTpro plex. Next, equal amounts were pooled and desalted by C18 solid-phase extraction cartridges (Sep-Pak Vac 1 cc C18 Cartridges, Waters Corp). Desalted peptides were chromatographically separated via basic reversed phase chromatography as previously described ([36]) into 24 fractions, dried down, and stored at −20 °C until further analysis.
Peptides were analyzed via LC-MS/MS on a Vanquish Neo UHPLC coupled to an Orbitrap Eclipse Tribrid mass spectrometer (Thermo Fisher Scientific). […] The mass spectrometer was operated in data-dependent mode and positive ionization mode. Samples were measured, employing a MS3 method with real-time search. […] Iontrap-MS2 spectra for peptide identification were acquired using HCD fragmentation with 35% NCE, an isolation window of 0.7 m/z, an AGC target value of 5e4 charges, and a maxIT of 35 ms. To obtain quantitative information on TMT reporter ions, each peptide precursor was fragmented again as for MS2 analysis followed by synchronous selection of the up to 10 most intense peptide fragments in the iontrap ([37]) and further fragmentation via HCD using an NCE of 55%. For the MS3 scan, real-time search was enabled to only trigger a MS3 scan for peptides that are TMT-labeled and can be identified (searched against a mouse database, same as used for maxquant processing). The MS3 scan was recorded in the OT at 30,000 resolution (scan range 110–500 m/z, isolation window of 0.7 m/z, AGC of 2e4 charges, maxIT of 120 ms). The cycle time was set to 3 s, and the dynamic exclusion lasted for 60 s.
Raw files were searched with Maxquant (v. 2.0.3.0) against the mouse reference proteome (UP000000589, canonical, download 10/2019, 55,029 entries) with standard settings for reporter ion MS3 unless described otherwise ([39]). Isotope impurities of the TMT lot were specified to allow MaxQuant the automated correction of TMT intensities. […] Trypsin/P was specified as the proteolytic enzyme with up to two missed cleavage sites allowed. […]

## CCOC(=O)c1nnn(-c2nn3nnnc3c3ccccc23)c1C [compound 2]
  log2 FC cmpd2_26uM/cmpd3_26uM: 0.07
